In general, melting point refers to the temperature of the solid-liquid transition.

The compound `CC(C)(CO)NS(=O)(=O)c1cc(NC(=O)c2cnn3c(C(F)F)cc(-c4ccc(C(F)(F)F)cc4)nc23)c(Cl)s1` registered a melting point of 233 °C.

In turn, `CC(C)(C)c1cc(NC(=O)c2cccc(C(=O)O)c2)cc(C(C)(C)C)c1O` had a melting point of 253 to 257 °C.

`CC(=O)c1c(O)c(C(C)=O)c(C(C)=O)c2c1Oc1cc(O)ccc1N2` had a melting point of 208 °C.

The compound `CN1CCN(c2ccc(C(=O)NCCCCCCCCCCCCO[N+](=O)[O-])cn2)CC1` registered a melting point of 74 to 76 °C.

`COC(=O)Cc1cn(-c2ccccc2)nc1OCc1ccc(OCc2nc(-c3ccccc3)oc2C)cc1` registered a melting point of 113 to 114 °C.

For the compound `C[C@H](C(=O)c1ccccc1F)n1ccn(-c2ccc(OC(F)(F)C(F)F)cc2)c1=O`, the melting point was in the range of 78 to 79 °C.

Compound `CC(=NO)c1cc2c(s1)CCCN(CCCCN1CCN(c3ncccn3)CC1)C2=O` displayed a melting point of 144 to 146 °C.

Regarding `CN(CCc1cn(C(=O)OCc2ccccc2)c2ccc([N+](=O)[O-])cc12)C(=O)C(F)(F)F`, the melting point is 107 to 109 °C.

For `N#CCS(=O)(=O)CC(=O)O`, the melting point was in the range of 104 to 105 °C.

With `O=C(c1cccc(C(F)(F)F)c1)c1ccc[nH]1`, the melting point fell in the range of 54 to 56 °C.

Regarding `Cc1cccc(N2CCN(CCCCc3ccc(C(=O)CCC(=O)O)cc3)CC2)c1`, the melting point was in the range of 199 to 201 °C.

`O=C(O)CCCCCCCCCCCCCCCCCCCCC(=O)ON1C(=O)CCC1=O` displayed a melting point of 122 to 124 °C.

The compound `CC(=O)Nc1nnc(S(=O)(=O)Cc2ccccc2)o1` returned a melting point of 245 to 248 °C.

`O=C(C(Br)c1ccc(Cl)cc1)C1(c2ccc(Cl)c(Cl)c2)CCC1` (centres undefined): the melting point lay within 109 to 110 °C.

As for `O=C(NC(=O)c1c(F)cccc1F)Nc1cc(C(F)(F)F)c(Cl)cc1Br`, the melting point was determined as 196 °C.

For the compound `C#CCOc1ccc(C2c3[nH]c4ccccc4c3CC(C(=O)OC)N2C(=O)CCl)cc1` (centres undefined), the melting point is 218 °C.

Regarding `CS(=O)(=O)c1ccc(-c2cnn(-c3cc(F)cc(F)c3)c(=O)c2-c2ccc(F)cc2)cc1`, the melting point lay in the range of 166 to 168 °C.

In the case of `CC(=O)C[C@@H](Cc1ccccc1)C(=O)O`, the melting point is 71 to 73 °C.

`CCOC(COc1ccc2c(-c3ccccc3F)noc2c1Cl)OCC` came in with a melting point of 59 °C.

Compound `CN1CCN(c2nn(CC3CC3)c3ccccc23)CC1` came in with a melting point of 68 to 70 °C.

Regarding `O=C(CC1CCCCC1)Nc1n[nH]c(-c2ccc(F)cc2)c1-c1ccncc1`, the melting point was 296 to 300 °C.

Regarding `CC(C)COC(=O)N1CCN(c2nc3cccccc-3n2)CC1`, the melting point is 130 to 133 °C.

As for `Cc1cccc(-c2n[nH]cc2-c2ccc(F)c(-c3cn(C)cn3)c2)n1`, the melting point was 168 to 169 °C.

Take `CC(C)c1ccc(C(C)C)n1NC1=NCCN1`: the melting point fell in the range of 230 to 232 °C.

`COc1ccc(CC(=O)c2c(O)c3cccnc3n(-c3ccccc3)c2=O)cc1`: the melting point fell in the range of 190 to 192 °C.

`Cc1cccc(NC(=S)NC2N=C(c3ccccc3F)c3ccccc3N(CC(=O)N3CC4CCC(CC4)C3)C2=O)c1` (racemic): the melting point was 129 to 134 °C.

For `COc1ccc(C=C(C#N)C(=O)O)cc1OC`, the melting point is 206 °C.

As for `COCCn1cc(C#N)c(N)n1`, the melting point was in the range of 105 to 107 °C.

As to `C=CCSc1nnc(OC)c2ccccc12`, the melting point was 32 to 34 °C.

In turn, `Cc1nn(-c2cncc(F)c2)cc1N` yielded a melting point of 136 to 138 °C.

Regarding `CCOC(=O)c1noc2ccccc12`, the melting point lay within 53 to 55 °C.

In turn, `CCC12CCC(=O)C=C1c1c(cc(OCC(=O)OCC(O)CO)c(Cl)c1Cl)C2` (centres undefined) returned a melting point of 135 to 138 °C.

Take `Cc1cn(C2CC(O[Si](C)(C)C(C)(C)C)C(CO)O2)c(=O)[nH]c1=O` (centres undefined): the melting point was in the range of 93 to 95 °C.

As for `O=C(Cn1c(-c2ccc(Cl)cc2)nc2cccnc21)N1CCOCC1`, the melting point fell in the range of 213 to 216 °C.

The compound `Nc1ccc(C2CC2)cc1C(=O)O` had a melting point of 158 °C.

For the compound `O=C1OC(=O)C(c2ccccc2)=C1Cl`, the melting point lay within 82 to 83 °C.

`CCOC(=O)n1[nH]c(=O)c2c([N+](=O)[O-])cccc21` had a melting point of 234 to 236 °C.

Turning to `CCOC(=O)Cc1nc(-c2cc(C(C)(C)C)c(O)c(C(C)(C)C)c2)oc1C`, the melting point was 103 to 105 °C.

Regarding `COC(=O)c1cscc1NC(=O)COc1ccc(-c2ccc(F)cc2)cc1`, the melting point is 127 to 130 °C.

`COC(=O)c1sc(Br)cc1N` had a melting point of 173 to 176 °C.

`CC1(C)C=C(N2CCCC2=O)c2cc(C#N)ccc2C1` displayed a melting point of 131 to 132 °C.

`Cn1c2sc(C(=O)O)cc2c2cccc(Cl)c21` showed a melting point of 233 to 234 °C.

On to `N#Cc1cc(C(F)(F)F)[nH]c1-c1ccc(Cl)c(Cl)c1`, for which the melting point lay in the range of 230 to 232 °C.

`O=C(Nc1ccc2cc(CN3CCCC3)cnc2c1)c1ccc(-c2ccc(F)cc2)nc1` returned a melting point of 218 to 220 °C.

For the compound `COc1cc(Cl)c2c(=O)c(-c3ccccc3C)coc2c1`, the melting point lay within 159 to 160 °C.

As for `CCOc1nn(Cc2ccc(Cl)cc2Cl)cc1CCCOc1cc(CCC(=O)O)n(-c2ccccc2)n1`, the melting point fell in the range of 132 to 133 °C.

`COC(=O)COc1ccc2cc(-c3csc(Cc4c(Cl)cccc4Cl)n3)ccc2c1` gave a melting point of 174 to 177 °C.

`COc1ccc(C)cc1NC(=O)Nc1ccc(N2CCN(C(=O)Nc3ccc(N(C)CCO)cc3C)CC2)cc1` gave a melting point of 208 to 210 °C.

`NC(=S)N1CCC(c2cccc(C(F)(F)F)c2)=N1` displayed a melting point of 159 to 161 °C.

Consider `Nc1cncc(C(O)c2ccccc2)c1` (centres undefined), for which the melting point was in the range of 92 to 94 °C.

Compound `CC(CO)Cn1cnc2c(N)nc3ccccc3c21` (centres undefined) registered a melting point of 258 to 261 °C.

`COc1cc(NS(=O)(=O)c2cccs2)c2[nH]c(C(=O)NCCSC(c3ccccc3)(c3ccccc3)c3ccccc3)cc2c1` had a melting point of 128 to 129 °C.

`O=CN1CCN(C(=O)CCBr)CC1` registered a melting point of 96 to 98 °C.

As to `COc1c(C)c(C)c(OC)c(C(CCCC(=O)O)c2cccnc2)c1C` (centres undefined), the melting point lay within 82 to 84 °C.

In turn, `Fc1ccccc1CSc1nc2cnccc2[nH]1` gave a melting point of 186 to 188 °C.

For the compound `Cc1cc(C#Cc2cn(-c3ncccn3)c(C)n2)ccn1`, the melting point lay within 164 to 165 °C.

In the case of `O=c1nc(-c2ccccn2)sc2ncccc12`, the melting point was 235 °C.

With `CC(=O)N1CCN(c2cc(Cl)c(Cl)c(Cl)c2)CC1`, the melting point lay in the range of 133 to 136 °C.

Take `CCCSc1sc(C(=O)OCC)c2c1C(=O)C(NC(=O)CC)CC2` (centres undefined): the melting point lay in the range of 191 to 192 °C.

The compound `CNc1nc(-c2cccc(NC(=O)c3ccc(Cl)c(Cl)c3)c2)c2cc(OC)c(OC)cc2n1` showed a melting point of 134 to 136 °C.

`COC(=O)c1cc(C(=O)c2ncc3ccccn23)ccc1[N+](=O)[O-]` showed a melting point of 151 °C.

The compound `Cc1ccc(C2CC(CN(C)C)Oc3ccccc32)cc1` (centres undefined) registered a melting point of 114 to 116 °C.

Regarding `CN(CCCc1ccccc1)[C@H]1CC[C@H](c2ccc(O)cc2)CC1`, the melting point was in the range of 156 to 158 °C.

`COc1ccc(CN2Cc3cncn3C(c3ccc(C#N)cc3)C2=O)cc1` (centres undefined) gave a melting point of 155 to 157 °C.

The record behind these values is a melting point compilation (Tetko et al.; mined from patent text by program, amines drawn as free bases though some values may be those of a salt).
